Experimental data as given in EP4813993A1, “COMPOUND, PREPARATION METHOD THEREFOR, AND USE THEREOF” (Sichuan Kelun Pharmaceutical Research Institute Co., Ltd., priority 2023, dated 2025).
Blank lines part the entries; values can stand above or below the compound they belong to.

What was measured:
[1] = Pharmacokinetic study in SD rats; type: in vivo; conditions: for AUC(0-inf) / half-life / Cmax / Tmax / bioavailability: rat
Protocol: Experimental Example 2: Pharmacokinetic study of compounds in SD rats
Experimental animals: SD rats, male, 6-8 weeks old.
(§1) Compound preparation: 5% (final preparation volume) of DMSO was added to dissolve the test compound, and then 10% (final preparation volume) of Cremophor EL and 85% Saline were sequentially added.
(§2) Experimental design: The test compounds were administered to SD rats as a single dose via intravenous and oral administration, respectively (injection: 2 mg/kg; oral administration: 10 mg/kg; n = 3). The injection group was given free access to food and water. The oral group was fasted overnight (> 12 h) with free access to water, and was fed 4 h after administration. Blood samples were collected from the jugular vein of SD rats at the following time points: 5 min, 15 min, 0.5 h, 1 h, 2 h, 4 h, 8 h, and 24 h after injection administration; 15 min, 0.5 h, 1 h, 2 h, 4 h, 6 h, 8 h, and 24 h after oral administration. The collected blood samples were anticoagulated, placed in an ice bath, and then centrifuged at 6000 g for 5 min to separate plasma. The plasma samples were stored at -70 °C for analysis.
Sample monitoring: The concentrations of the designated compound drugs in plasma were determined by the LC-MS/MS method; the main pharmacokinetic parameters were calculated using the Winnolin 8.3 non-compartmental model.

[2] = Pharmacokinetic study in ICR mice; type: in vivo; conditions: male, mouse, plasma
Protocol: Experimental Example 3: Pharmacokinetic study of compounds in ICR mice
(§3) Experimental animals: ICR mice, male, 6-8 weeks old.
as §1
as §2, with “The” for “Experimental design: The test compounds were administered to SD rats as a single dose via intravenous and oral administration, respectively (injection: 2 mg/kg; oral administration: 10 mg/kg; n = 3). The”, “of ICR mice” for “of SD rats”, “centrifuged” for “centrifuged at 6000 g”, “plasma was” for “plasma samples were”
Sample test: The concentrations of the designated compound drugs in plasma were determined by the LC-MS/MS method; the main pharmacokinetic parameters were calculated using the Winnolin 8.3 non-compartmental model. Pharmacokinetic test results of some compounds of the present disclosure in ICR mice

Nav1.8 channels = molecular target: T1, Nav1.8 channels (Homo sapiens, UniProt Q9Y5Y9); assay: Manual patch-clamp, current of stably overexpressed Nav1.8 channels (resting state voltage program); type: cell-based; conditions: for inhibition at 0.01 µM: concentration of 10 nM, read-out: Inhibition rate %
T1 construct: expressed in transfected cells
Summary of the method: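 Whole-cell manual patch clamp on cells stably overexpressing Nav1.8, held at -120 mV and stepped to 0 mV for 50 ms every 20 s (resting-state protocol). Compounds were perfused in ascending concentrations, each for 5 min or until stable; block of peak current was calculated at steady state.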

[3] = Tissue distribution study (dorsal root ganglia) in ICR mice; type: in vivo; conditions: male, mouse, oral administration 20 mg/kg
Protocol: Experimental Example 4: Tissue distribution study of compounds in ICR mice
as §3, §1
Experimental design: The test compounds were administered to ICR mice as a single dose via oral administration (20 mg/kg; n = 3, 3 time points). Blood samples were collected at 0.25 h, 2 h, and 12 h after oral administration, followed by sacrifice of the animals. Dorsal root ganglia (DRG) were collected, rinsed with ice-cold normal saline to remove residual blood, blotted dry with absorbent paper, and stored at -70 °C for analysis.
Sample test: The concentrations of the compound drugs in dorsal root ganglia were determined by the LC-MS/MS method.

[4] = test system: acetic acid writhing model; assay: Mouse acetic acid writhing model; type: in vivo, ICR mice; conditions: for Number of writhing responses: ICR mice, 60 min before 0.8% acetic acid i.p., 30 min observation, Mean + SD, n = 10
Protocol: Experimental Example 11: Pharmacodynamic effect study of compounds in mouse acetic acid writhing model
Experimental animals: ICR mice, male, 20-24 g.
(§4) Compound preparation: 5% (final preparation volume) of DMSO was added to dissolve the test compound, and then 10% (final preparation volume) of Cremophor EL and 85% Saline were sequentially added; an appropriate amount of Etoricoxib was weighed, 5% (final preparation volume) of DMSO was added to dissolve the test compound, and then 5% (final preparation volume) of HS-15 and 90% Saline were sequentially added.
• 1. The mice were randomly grouped based on the body weight for model establishment, with 10 animals per group. A 0.8% (v/v) acetic acid solution was intraperitoneally injected at an injection volume of 10 mL/kg. • 2. Administration and test
Administration was performed 60 min before modeling. After the acetic acid solution was injected, the number of writhing responses in mice was observed. […] The number of writhing responses was observed and recorded during two intervals: 0-15 min and 15-30 min, with a total observation duration of 30 min. Inhibition rate = (number of writhing responses in control group - number of writhing responses in administration group)/number of writhing responses in control group × 100%. The model control group was given normal saline, the positive control group 1 was given etoricoxib at 20 mg/kg, the positive control group 2 was given VX-548 at 50 mg/kg, and the remaining groups were given the compounds of the present disclosure according to the administration doses in the table below.

formalin pain model = assay: Rat formalin pain model; type: in vivo, SD rats
Protocol: Experimental Example 10: Pharmacodynamic effect study of compounds in rat formalin pain model
Experimental animals: SD rats, male, 180-200 g.
as §4, with “added; the tramadol injection was diluted with normal saline to the desired concentration.” for “added.”
Each group consisted of 10 animals, and 50 µL of a 5% formalin solution was injected using a microsyringe into the right plantar region.
2. Administration and test
Based on different pharmacokinetic properties of the drugs, the administration was performed at 0 min, 60 min, and 120 min before modeling. After injection of the formalin, the number of pain responses in the rats was observed. […] Spontaneous pain responses were observed once every 5 min, and the number of pain responses in the rats within 1 min was counted, with a total observation duration of 60 min. Inhibition rate = (number of pain responses in control group - number of pain responses in administration group)/number of pain responses in control group × 100%.
Table 12. Administration information of compounds of the present disclosure in rat formalin model

[5] = in vivo, Oral administration, 10 mg/kg
[6] = male, plasma, Oral administration, 10 mg/kg
[7] = male, plasma, intravenous, Injection, 2 mg/kg

T1 sequence (Q9Y5Y9 whole entry): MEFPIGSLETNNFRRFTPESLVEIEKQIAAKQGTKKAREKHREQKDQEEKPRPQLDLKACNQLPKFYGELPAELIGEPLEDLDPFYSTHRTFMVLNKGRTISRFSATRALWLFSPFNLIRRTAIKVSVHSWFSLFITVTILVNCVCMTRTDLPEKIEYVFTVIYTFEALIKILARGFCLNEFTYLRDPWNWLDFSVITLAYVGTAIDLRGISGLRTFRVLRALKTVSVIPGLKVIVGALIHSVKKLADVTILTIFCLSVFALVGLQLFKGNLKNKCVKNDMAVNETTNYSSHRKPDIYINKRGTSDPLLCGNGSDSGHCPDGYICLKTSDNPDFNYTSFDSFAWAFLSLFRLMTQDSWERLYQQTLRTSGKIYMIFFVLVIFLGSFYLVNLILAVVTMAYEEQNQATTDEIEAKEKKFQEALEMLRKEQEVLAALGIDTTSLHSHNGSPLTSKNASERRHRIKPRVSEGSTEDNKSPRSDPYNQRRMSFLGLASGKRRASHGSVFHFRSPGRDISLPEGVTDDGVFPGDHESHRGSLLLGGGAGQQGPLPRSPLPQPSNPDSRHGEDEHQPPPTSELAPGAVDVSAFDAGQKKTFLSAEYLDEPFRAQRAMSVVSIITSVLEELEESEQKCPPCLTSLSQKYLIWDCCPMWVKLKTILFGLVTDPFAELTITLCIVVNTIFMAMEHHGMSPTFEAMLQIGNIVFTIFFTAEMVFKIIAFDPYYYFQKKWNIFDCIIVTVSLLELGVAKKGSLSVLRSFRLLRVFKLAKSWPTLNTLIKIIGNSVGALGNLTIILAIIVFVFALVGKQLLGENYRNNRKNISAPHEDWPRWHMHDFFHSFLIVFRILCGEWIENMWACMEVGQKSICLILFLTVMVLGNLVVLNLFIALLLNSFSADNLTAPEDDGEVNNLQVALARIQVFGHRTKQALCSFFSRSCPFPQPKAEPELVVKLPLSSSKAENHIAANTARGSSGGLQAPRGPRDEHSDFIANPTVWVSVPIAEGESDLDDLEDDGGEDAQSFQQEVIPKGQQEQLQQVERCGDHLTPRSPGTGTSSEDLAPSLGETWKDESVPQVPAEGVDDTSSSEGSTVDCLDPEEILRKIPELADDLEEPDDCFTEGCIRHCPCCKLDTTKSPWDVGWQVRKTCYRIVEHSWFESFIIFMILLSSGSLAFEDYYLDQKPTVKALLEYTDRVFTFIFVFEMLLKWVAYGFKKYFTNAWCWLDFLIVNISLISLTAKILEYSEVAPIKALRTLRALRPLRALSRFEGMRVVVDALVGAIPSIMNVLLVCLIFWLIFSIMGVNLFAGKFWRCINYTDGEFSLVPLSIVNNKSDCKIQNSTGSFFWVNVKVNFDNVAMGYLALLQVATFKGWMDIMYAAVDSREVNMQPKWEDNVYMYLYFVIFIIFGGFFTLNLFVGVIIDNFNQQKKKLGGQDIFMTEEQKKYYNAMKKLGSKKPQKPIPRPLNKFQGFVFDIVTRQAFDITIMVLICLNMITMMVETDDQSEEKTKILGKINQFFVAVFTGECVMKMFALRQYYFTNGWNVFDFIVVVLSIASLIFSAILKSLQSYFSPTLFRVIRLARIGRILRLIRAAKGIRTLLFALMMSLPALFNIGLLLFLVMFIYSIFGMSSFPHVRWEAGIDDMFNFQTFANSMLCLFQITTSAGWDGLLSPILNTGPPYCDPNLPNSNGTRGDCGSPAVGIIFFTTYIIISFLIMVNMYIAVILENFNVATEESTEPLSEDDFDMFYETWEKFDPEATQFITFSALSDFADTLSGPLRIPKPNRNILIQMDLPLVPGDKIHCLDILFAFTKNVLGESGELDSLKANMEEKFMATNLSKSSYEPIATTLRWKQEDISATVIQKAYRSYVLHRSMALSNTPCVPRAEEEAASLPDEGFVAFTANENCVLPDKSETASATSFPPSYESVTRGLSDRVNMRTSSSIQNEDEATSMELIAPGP

AUC(0-inf) ([1]; in vivo, Injection, 2 mg/kg): 2650 ng·h/mL
half-life ([1]; in vivo, Injection, 2 mg/kg): 2.64 h
AUC(0-inf) [1, 5]: 4970 ng·h/mL
Cmax [1, 5]: 577 ng/mL
Tmax [1, 5]: 2 h
bioavailability [1, 5]: 37.6%
half-life [1, 5]: 3.26 h
Structure (SMILES): COc1c(C2C(C(=O)Nc3ccnc(C(N)=O)c3)OC(C)(C(F)(F)F)C2C)ccc(F)c1F (racemic) [VX-548(rac)]

Structure (SMILES): COc1c([C@@H]2C[C@](C)(C(F)(F)F)S[C@H]2C(=O)Nc2ccc3c(c2)COB3O)ccc(F)c1F [Compound 119-A, (2R,3S,5R)-3-(3,4-difluoro-2-methoxyphenyl)-N-(1-hydroxy-1,3-dihydrobenzo[c][1,2]oxaborol-5-yl)-5-methyl-5-(trifluoromethyl)tetrahydrothiophene-2-carboxamide]
AUC(0-inf) ([2]; Oral administration (p.o.), 20 mg/kg): 6740 ng·h/mL
AUC(0-inf) ([2]; iv, Injection (i.v.), 2 mg/kg): 842 ng·h/mL
IC50 (Nav1.8 channels): 0.49 nM
concentration at 0.25 h [3]: 875 ng/g
concentration at 2 h [3]: 2580 ng/g
concentration at 12 h [3]: 199 ng/g
Number of writhing responses ([4]; Dose 50 mg/kg): 18 ± 15
inhibition of the writhing effect compared with VX-548 ([4]; mouse acetic acid writhing model): better than VX-548

Structure (SMILES): COc1c(C2CC(C)(C(F)(F)F)SC2C(=O)Nc2ccnc(C(N)=O)c2)ccc(F)c1F (centres unmarked) [Compound 139, 4-(3-(3,4-difluoro-2-methoxyphenyl)-5-methyl-5-(trifluoromethyl)tetrahydrothiophene-2-carboxamido)picolinamide]
t1/2, relative to VX-548 [1]: 2 times
AUC(0-inf) [1, 6]: 9310 ng·h/mL
Cmax [1, 6]: 724 ng/mL
Tmax [1, 6]: 4 h
bioavailability [1, 6]: 48.5%
half-life [1, 6]: 6.29 h
AUC(0-inf) [1, 7]: 3840 ng·h/mL
half-life [1, 7]: 4.86 h
exposure level after oral administration, relative to VX-548 ([1]; oral administration): 2 times
IC50 (Nav1.8 channels): 0.2 nM
inhibition at 0.01 µM (Nav1.8 channels): 98.2%

AUC(0-inf) ([2]; Oral administration, 10 mg/kg): 18600 ng·h/mL
AUC(0-inf) ([2]; iv, Injection (i.v.), 2 mg/kg): 3480 ng·h/mL
inhibition at 0.01 µM (Nav1.8 channels): 97.7%
concentration at 0.25 h [3]: 597 ng/g
concentration at 2 h [3]: 6070 ng/g
concentration at 12 h [3]: 2220 ng/g
Structure (SMILES): COc1c([C@@H]2C[C@](C)(C(F)(F)F)S[C@H]2C(=O)Nc2ccnc(C#N)c2)ccc(F)c1F [Compound 242-A, (2R,3S,5R)-N-(2-cyanopyridin-4-yl)-3-(3,4-difluoro-2-methoxyphenyl)-5-methyl-5-(trifluoromethyl)tetrahydrothiophene-2-carboxamide]

Structure (SMILES): Cc1ccc(-c2ncc(Cl)cc2-c2ccc(S(C)(=O)=O)cc2)cn1 [Etoricoxib]
Number of pain responses 0 min (formalin pain model; SD rats, 30 mg/kg p.o. 60 min before 5% formalin, 0 min, Mean + SD, n = 10): 37.5±9.2
Number of pain responses 10 min (formalin pain model; SD rats, 30 mg/kg p.o. 60 min before 5% formalin, 10 min, Mean + SD, n = 10): 2.0±2.4
Number of pain responses 15 min (formalin pain model; SD rats, 30 mg/kg p.o. 60 min before 5% formalin, 15 min, Mean + SD, n = 10): 10.1±4.0
Number of pain responses 30 min (formalin pain model; SD rats, 30 mg/kg p.o. 60 min before 5% formalin, 30 min, Mean + SD, n = 10): 14.3±5.3
Number of pain responses 40 min (formalin pain model; SD rats, 30 mg/kg p.o. 60 min before 5% formalin, 40 min, Mean + SD, n = 10): 10.8±6.2
Number of pain responses 50 min (formalin pain model; SD rats, 30 mg/kg p.o. 60 min before 5% formalin, 50 min, Mean + SD, n = 10): 5.1±8.5
Number of pain responses 60 min (formalin pain model; SD rats, 30 mg/kg p.o. 60 min before 5% formalin, 60 min, Mean + SD, n = 10): 3.3±3.7
analgesic activity in the first and second phases (formalin pain model; rat formalin pain model, first phase immediately after injection, second phase about 15-20 min after): superior analgesic effects in the first and second phases, respectively
Number of writhing responses ([4]; Dose 20 mg/kg): 29 ± 11
